From patent publication US20130165679A1, “ALPHA-GLUCOSIDASE INHIBITOR” (priority 2011, published 2013) come the findings set out here.

This experiment concerns α-glucosidase. It counts as biochemical. Particulars: for IC50 (concentration to obtain 50% enzyme inhibitory activity): obtained by interpolation from inhibition rate data. As to the method: Examples of unsaturated fatty acid used to analyze its enzyme inhibitive activity as a α-glucosidase inhibitor include oleic acid (Ω9), linoleic acid (Ω6), and α-linolenic acid (Ω3).
In the analytical method, p-nitrophenyl-α-D-glucopyranoside was used as a substrate. The absorbance was measured by spectrophotometry to determine the α-glucosidase inhibition activity of samples (Apostolidis E. Lee C M. In vitro potential of Ascophyllum nodosam phenolic antioxidant-mediated alpha-glucosidase and alpha-amylase inhibition. Journal of Food Science 2010, 75:H97-102; Kang W Y, Song Y L, Zhang L. α-Glucosidase inhibitory and antioxidant properties and antidiabetic activity of Hypericum ascyron L. Medicinal Chemistry Research 2011.20:809-816).
To a 1.5 ml eppendorf tube containing 0.05 ml of sample solution (in 5% methanol), 0.1 ml of α-glucosidase solution (2 U/ml; in 100 mM phosphate buffer, pH 6.9) was added. The mixture was incubated in 37° C. water bath for 10 min, and then 0.05 ml of 5 mM p-nitrophenyl-α-D-glucopyranoside (in 100 mM phosphate buffer, pH 6.9) was added and mixed homogeneously. The mixture was incubated in 37° C. water bath for 10 min, and then in boiling water for 5 min to stop the reaction. After the addition of 1 ml of deionized water, the absorbance at 405 nm was measured by spectrophotometer (U-1800, Hitachi. Tokyo, Japan). • 1. Determining the α-glucosidase inhibition activity of oleic acid (as the α-glucosidase inhibitor): • A. Experimental group: enzyme+substrate+unsaturated fat acid (oleic acid) • B. Control: enzyme+substrate+buffer • C. Background: buffer+buffer+unsaturated fatty acid (oleic acid) • Calculation of the rate of inhibition:
Inhibition rate %=[ODControl−(ODExperimental group−ODBackground)]/ODControl×100%

Values after ≈ are worked out from the molar mass of the structure shown. Read-outs that look alike come from different tables or passages of the source.

As to `CC/C=C\C/C=C\C/C=C\CCCCCCCC(=O)O` [α-linolenic acid], the “IC50 (concentration to obtain 50% enzyme inhibitory activity)” value is 0.047 mg/mL (≈ 169 µM). Moreover, the “Inhibition rate (%)” value (0.04 mg/ml) is recorded as 31.6 ± 1.80%. For the same compound, under “0.0500 mg/ml”, the “Inhibition rate (%)” value worked out at 57.5 ± 2.39%. For the same compound, the “Inhibition rate (%)” value (0.06 mg/ml) is 81.0 ± 0.13%.
`CCCCC/C=C\C/C=C\CCCCCCCC(=O)O` [linoleic acid]: the “IC50 (concentration to obtain 50% enzyme inhibitory activity)” value stood at 0.033 mg/mL (≈ 118 µM). Also, the “Inhibition rate (%)” value (0.0125 mg/ml) is listed as 2.99 ± 0.36%. For the same compound, the “Inhibition rate (%)” value (0.0250 mg/ml) turned out to be 30.10 ± 0.54%. Moreover, under “0.0500 mg/ml”, the “Inhibition rate (%)” value is given as 91.60 ± 0.62%.
As to `CCCCCCCC/C=C\CCCCCCCC(=O)O` [oleic acid], the “IC50 (concentration to obtain 50% enzyme inhibitory activity)” value came out at 0.022 mg/mL (≈ 77.9 µM). Moreover, where the note is “0.01 mg/ml”, the “Inhibition rate (%)” value is given as 11.8 ± 0.99%. The “Inhibition rate (%)” value (0.02 mg/ml) came to 52.2 ± 0.55%. The “Inhibition rate (%)” value (0.04 mg/ml) was determined as 96.7 ± 0.06%.
